The source of these data is patent publication US20130156825A1, “Modafinil Formulations” (CEPHALON, INC., priority 2002, published 2013).

Data set [1] is described as follows: PSD of modafinil used to prepare the modafinil tablets. Format: physicochemical. As to conditions: modafinil used for 200 mg tablets, method not stated. The protocol: Tablets containing 200 mg of modafinil having PSD as provided in table 2 below (values are in microns) were prepared: […]
Data set [2] is described as follows: PSD of modafinil particles, Malvern laser technique. Format: physicochemical. The protocol:
(§1) Modafinil PSD was measured in '517 U.S. patent by using a Hiac/Royco machine. This machine uses a light obscuration technique for the PSD measurement. We repeated the measurements of the PSD on a Hiac/Royco machine and compared it with a different laser beam obscuration technique offered by the commonly used Malvern machine. Both methods use light obscuration as means to evaluate the PSD, but they work on different principles. The results confirmed the validity of our PSD measurements. Both methods gave similar values. Both methods also gave PSD results that are far away from the scope of the values claimed by the '517 U.S. Patent. The following table summarizes the data. Values are reported in microns. The term D(v,0.5) denotes the diameter of the largest particle found in 50% of the particles sorted in increasing order. The other two terms refer to 85% and 95% of the particles. The terms mean, median and mode are used in their regular statistical meaning.

Data set [3] in a line: PSD of modafinil particles, Hiac/Royco light obscuration. As to conditions: Hiac. The format is physicochemical. The protocol: as §1
The conditions of data set [4]: '517 U.S. Patent; cited from earlier work.

For `NC(=O)C[S+]([O-])C(c1ccccc1)c1ccccc1` (centres unmarked) [Batch A, 2-[(diphenylmethyl)sulfinyl]acetamide], in data set [1] (listed as A), the “D(v, 0.5)” value stood at 107 microns; the “D(v, 0.85)” value is recorded as 235 microns; the “D(v, 0.95)” value was determined as 318 microns; the Median worked out at 107 microns. In data set [2] (listed as A), the “D(v, 0.5)” value came to 107 microns; the “D(v, 0.85)” value came out at 235 microns; the “D(v, 0.95)” value turned out to be 318 microns; the Median particle size is 107 microns. Further, in data set [3] (listed as A), the “D(v, 0.5)” value came to 133 microns; the “D(v, 0.85)” value is recorded as 229 microns; the “D(v, 0.95)” value is 282 microns; the Mean particle size stood at 51 microns. In data set [3] (listed as A), this compound gave a Median particle size of 134 microns and a mode particle size of 196 microns.
Regarding `NC(=O)C[S+]([O-])C(c1ccccc1)c1ccccc1` (centres unmarked) [Batch B, 2-[(diphenylmethyl)sulfinyl]acetamide], in data set [1] (listed as B), the “D(v, 0.5)” value was determined as 85 microns; the “D(v, 0.85)” value is 215 microns; the “D(v, 0.95)” value is reported as 293 microns; the Median was found to be 85 microns. Besides, in data set [2] (listed as B), the “D(v, 0.5)” value is on record as 85 microns; the “D(v, 0.85)” value is listed as 215 microns; the “D(v, 0.95)” value was determined as 293 microns; the Median particle size amounted to 85 microns. For the same compound, in data set [3] (listed as B), the “D(v, 0.5)” value is 103 microns; the “D(v, 0.85)” value came out at 194 microns; the “D(v, 0.95)” value is listed as 265 microns; the Mean particle size is 40 microns. For the same compound, in data set [3] (listed as B), the Median particle size is given as 104 microns and the mode particle size turned out to be 148 microns.
As for `NC(=O)C[S+]([O-])C(c1ccccc1)c1ccccc1` (centres unmarked) [Batch C, 2-[(diphenylmethyl)sulfinyl]acetamide], in data set [1] (listed as C), the “D(v, 0.5)” value was 128 microns; the “D(v, 0.85)” value is listed as 228 microns; the “D(v, 0.95)” value is reported as 303 microns; the Median came out at 128 microns. Also, in data set [2] (listed as C), the “D(v, 0.5)” value is listed as 128 microns; the “D(v, 0.85)” value came out at 228 microns; the “D(v, 0.95)” value turned out to be 303 microns; the Median particle size is 128 microns. Moreover, in data set [3] (listed as C), the “D(v, 0.5)” value amounted to 148 microns; the “D(v, 0.85)” value amounted to 231 microns; the “D(v, 0.95)” value is on record as 277 microns; the Mean particle size worked out at 51 microns. In data set [3] (listed as C), the Median particle size is reported as 148 microns and the mode particle size amounted to 193 microns.
As for `NC(=O)C[S+]([O-])C(c1ccccc1)c1ccccc1` (centres unmarked) [Batch D, 2-[(diphenylmethyl)sulfinyl]acetamide], in data set [1] (listed as D), the “D(v, 0.5)” value stood at 95 microns; the “D(v, 0.85)” value is reported as 217 microns; the “D(v, 0.95)” value is given as 297 microns; the Median worked out at 95 microns.
In the case of `NC(=O)C[S+]([O-])C(c1ccccc1)c1ccccc1` (centres unmarked) [“early” batches], in data set [4], the “median value of modafinil particles” value is on record as 94-143 μ and the “size below which 95% of the particles lie” value is listed as 220-280 μ.
Turning to `NC(=O)C[S+]([O-])C(c1ccccc1)c1ccccc1` (centres unmarked) [“late” batches], in data set [4], the “median value of modafinil particles” value is listed as 31-50 μ and the “size below which 95% of the particles lie” value is 110-150 μ.
